Assay results published in the NIST ThermoML archive (doi:10.1016/j.jct.2012.04.018).
Several values for one entry are separate records, joined by “and”; a condition that tells them apart may be missing. Identical values can stand only once.

Columns and labels:
[1] = refractive index (other wavelength) (dimensionless); xn = mol fraction of the nth substance listed; conditions: 290.9 K, 101 kPa, Liquid, Wavelength=632.8 nm, He-Ne laser
[2] = heat capacity at constant pressure per volume; xn = mol fraction of the nth substance listed; conditions: 101 kPa, Liquid, DSC, calvet, x2 = 0.44

N#Cc1ccccc1 [benzonitrile] + CCCCCCCCCCC
Conditions | heat capacity | refractive index
[1], x2 = 0.133 | – | 1.5005
[1], x2 = 0.212 | – | 1.4877
[1], x2 = 0.336 | – | 1.4708
[1], x2 = 0.42 | – | 1.4607
[1], x2 = 0.512 | – | 1.4513
[1], x2 = 0.606 | – | 1.443
[1], x2 = 0.704 | – | 1.4351
[1], x2 = 0.799 | – | 1.4285
[1], x2 = 0.902 | – | 1.4222
[2], 286.54 K | 1846500 J/K/m3 | –
[2], 286.76 K | 1854000 J/K/m3 | –
[2], 286.99 K | 1862200 J/K/m3 | –
[2], 287.22 K | 1857300 J/K/m3 | –
[2], 287.45 K | 1862800 J/K/m3 | –
[2], 287.68 K | 1867600 J/K/m3 | –
[2], 287.91 K | 1870300 J/K/m3 | –
[2], 288.14 K | 1878500 J/K/m3 | –
[2], 288.37 K | 1879100 J/K/m3 | –
[2], 288.6 K | 1887700 J/K/m3 | –
[2], 288.83 K | 1896600 J/K/m3 | –
[2], 288.94 K | 1895600 J/K/m3 | –
[2], 289.06 K | 1899000 J/K/m3 | –
[2], 289.17 K | 1913500 J/K/m3 | –
[2], 289.29 K | 1889000 J/K/m3 | –
[2], 289.4 K | 1931900 J/K/m3 | –
[2], 289.43 K | 1910800 J/K/m3 | –
[2], 289.46 K | 1918000 J/K/m3 | –
[2], 289.5 K | 1946800 J/K/m3 | –
[2], 289.53 K | 1960500 J/K/m3 | –
[2], 289.56 K | 1952300 J/K/m3 | –
[2], 289.6 K | 1953700 J/K/m3 | –
[2], 289.63 K | 1973800 J/K/m3 | –
[2], 289.67 K | 1984300 J/K/m3 | –
[2], 289.7 K | 1990700 J/K/m3 | –
[2], 289.74 K | 1995400 J/K/m3 | –
[2], 289.75 K | 2003100 J/K/m3 | –
[2], 289.77 K | 2011400 J/K/m3 | –
[2], 289.78 K | 2022500 J/K/m3 | –
[2], 289.79 K | 2035800 J/K/m3 | –
[2], 289.8 K | 2046300 J/K/m3 | –
[2], 289.81 K | 2053900 J/K/m3 | –
[2], 289.82 K | 2063600 J/K/m3 | –
[2], 289.83 K | 2084100 J/K/m3 | –
[2], 289.85 K | 2111800 J/K/m3 | –
[2], 289.86 K | 2155800 J/K/m3 and 2141800 J/K/m3 and 2104500 J/K/m3 | –
[2], 289.87 K | 2067700 J/K/m3 and 2029900 J/K/m3 and 1997600 J/K/m3 | –
[2], 289.88 K | 1943900 J/K/m3 and 1858200 J/K/m3 | –
[2], 289.89 K | 1823500 J/K/m3 | –
[2], 289.9 K | 1809500 J/K/m3 | –
[2], 289.92 K | 1795800 J/K/m3 | –
[2], 289.93 K | 1786900 J/K/m3 | –
[2], 289.94 K | 1780500 J/K/m3 | –
[2], 289.95 K | 1778700 J/K/m3 | –
[2], 289.98 K | 1770500 J/K/m3 | –
[2], 290.01 K | 1757500 J/K/m3 | –
[2], 290.04 K | 1756200 J/K/m3 | –
[2], 290.06 K | 1746900 J/K/m3 | –
[2], 290.09 K | 1748200 J/K/m3 | –
[2], 290.12 K | 1747000 J/K/m3 | –
[2], 290.15 K | 1739100 J/K/m3 | –
[2], 290.18 K | 1736600 J/K/m3 | –
[2], 290.21 K | 1740600 J/K/m3 | –
[2], 290.24 K | 1732400 J/K/m3 | –
[2], 290.27 K | 1728300 J/K/m3 | –
[2], 290.44 K | 1721500 J/K/m3 | –
[2], 290.64 K | 1711900 J/K/m3 | –
[2], 290.84 K | 1707300 J/K/m3 | –
[2], 291.04 K | 1702300 J/K/m3 | –
[2], 291.24 K | 1698500 J/K/m3 | –
[2], 291.44 K | 1694500 J/K/m3 | –
[2], 291.64 K | 1693500 J/K/m3 | –
[2], 291.85 K | 1691400 J/K/m3 | –
[2], 292.05 K | 1688200 J/K/m3 | –
[2], 292.25 K | 1688500 J/K/m3 | –
[2], 292.45 K | 1685900 J/K/m3 | –
[2], 292.65 K | 1684300 J/K/m3 | –
[2], 292.85 K | 1683400 J/K/m3 | –
[2], 293.19 K | 1682100 J/K/m3 | –
[2], 293.43 K | 1680500 J/K/m3 | –
[2], 293.65 K | 1678500 J/K/m3 | –
[2], 293.88 K | 1679000 J/K/m3 | –
[2], 294.11 K | 1678400 J/K/m3 | –
[2], 294.34 K | 1676100 J/K/m3 | –
[2], 294.57 K | 1675700 J/K/m3 | –
[2], 294.8 K | 1675100 J/K/m3 | –
[2], 295.11 K | 1673900 J/K/m3 | –
[2], 295.85 K | 1672100 J/K/m3 | –
[2], 296.59 K | 1670800 J/K/m3 | –
[2], 297.34 K | 1670100 J/K/m3 | –
[2], 298.08 K | 1669100 J/K/m3 | –
[2], 298.82 K | 1667900 J/K/m3 | –
[2], 299.57 K | 1667300 J/K/m3 | –
[2], 300.31 K | 1667200 J/K/m3 | –
[2], 301.05 K | 1666300 J/K/m3 | –
[2], 301.8 K | 1666200 J/K/m3 | –
[2], 302.54 K | 1665900 J/K/m3 | –
[2], 303.29 K | 1665200 J/K/m3 | –
[2], 304.03 K | 1665100 J/K/m3 | –
[2], 304.77 K | 1665400 J/K/m3 | –
[2], 305.52 K | 1665600 J/K/m3 | –
[2], 306.26 K | 1665000 J/K/m3 | –
[2], 307 K | 1664800 J/K/m3 | –
[2], 307.75 K | 1665500 J/K/m3 | –
[2], 308.49 K | 1665600 J/K/m3 | –
[2], 309.23 K | 1665400 J/K/m3 | –
[2], 309.98 K | 1665500 J/K/m3 | –
[2], 310.72 K | 1665900 J/K/m3 | –
[2], 311.46 K | 1666400 J/K/m3 | –
[2], 312.21 K | 1666000 J/K/m3 | –
[2], 312.95 K | 1665700 J/K/m3 | –
[2], 313.69 K | 1666100 J/K/m3 | –
[2], 314.44 K | 1667100 J/K/m3 | –
[2], 315.18 K | 1666800 J/K/m3 | –
[2], 315.92 K | 1667700 J/K/m3 | –
[2], 316.67 K | 1668100 J/K/m3 | –
[2], 317.41 K | 1667700 J/K/m3 | –
[2], 318.15 K | 1667700 J/K/m3 | –
[2], 318.9 K | 1668700 J/K/m3 | –
[2], 319.64 K | 1667900 J/K/m3 | –
[2], 320.69 K | 1668700 J/K/m3 | –
[2], 321.75 K | 1669700 J/K/m3 | –
[2], 322.8 K | 1669700 J/K/m3 | –
[2], 323.86 K | 1670100 J/K/m3 | –
[2], 324.91 K | 1671400 J/K/m3 | –
